In patent US20190359609A1, “BICYCLIC OGA INHIBITOR COMPOUNDS” (Janssen Pharmaceutica NV, priority 2016, published 2019):

Biological target: T1, recombinant human Meningioma Expressed Antigen 5 (MGEA5), also referred to as O-GlcNAcase (OGA) (Homo sapiens, UniProt O60502)
T1 construct: Full length OGA enzyme was purchased at OriGene (cat # TP322411); purchased OriGene TP322411
T1 sequence (O60502 1-916): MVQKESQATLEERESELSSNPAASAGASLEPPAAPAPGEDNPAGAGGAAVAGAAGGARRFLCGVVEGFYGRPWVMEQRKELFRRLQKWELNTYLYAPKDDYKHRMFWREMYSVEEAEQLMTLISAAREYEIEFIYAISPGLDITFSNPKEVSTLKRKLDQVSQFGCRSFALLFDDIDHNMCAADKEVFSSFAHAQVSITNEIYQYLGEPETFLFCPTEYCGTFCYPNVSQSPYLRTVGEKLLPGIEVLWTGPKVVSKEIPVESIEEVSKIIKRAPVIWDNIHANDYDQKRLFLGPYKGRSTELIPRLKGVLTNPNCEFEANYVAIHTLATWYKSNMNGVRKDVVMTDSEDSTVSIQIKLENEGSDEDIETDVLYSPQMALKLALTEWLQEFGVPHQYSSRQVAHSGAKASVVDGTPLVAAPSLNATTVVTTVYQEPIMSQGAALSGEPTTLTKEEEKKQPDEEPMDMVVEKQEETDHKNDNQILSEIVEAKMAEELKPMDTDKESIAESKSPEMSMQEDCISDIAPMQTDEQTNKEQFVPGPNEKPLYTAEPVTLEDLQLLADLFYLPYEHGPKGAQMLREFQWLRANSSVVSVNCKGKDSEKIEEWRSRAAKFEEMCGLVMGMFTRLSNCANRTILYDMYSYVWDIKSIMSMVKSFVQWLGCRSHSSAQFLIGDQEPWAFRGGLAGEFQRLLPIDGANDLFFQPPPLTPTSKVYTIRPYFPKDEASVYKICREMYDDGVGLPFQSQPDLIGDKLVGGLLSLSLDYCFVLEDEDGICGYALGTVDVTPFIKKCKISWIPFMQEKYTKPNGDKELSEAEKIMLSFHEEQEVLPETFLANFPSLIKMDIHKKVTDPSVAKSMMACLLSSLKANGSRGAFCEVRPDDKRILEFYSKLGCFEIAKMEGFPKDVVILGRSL
Assay: OGA biochemical assay: inhibition of FM-GlcNAc hydrolysis, fluorescence (protocol A 10 nM OGA, 1 h; protocol B 2 nM OGA, 6 h)
Conditions: Enzymatic protocol A (10 nM OGA, 1 h); read-out: Enzymatic Emax (%)
Text: The assay is based on the inhibition of the hydrolysis of fluorescein mono-B-D-N-Acetyl-Glucosamine (FM-GlcNAc) (Mariappa et al. 2015, Biochem J 470:255) by the recombinant human Meningioma Expressed Antigen 5 (MGEA5), also referred to as 0-GlcNAcase (OGA). The hydrolysis FM-GlcNAc (Marker Gene technologies, cat # M1485) results in the formation of β-D-N-glucosamineacetate and fluorescein. The fluorescence of the latter can be measured at excitation wavelength 485 nm and emission wavelength 538 nm. An increase in enzyme activity results in an increase in fluorescence signal. Full length OGA enzyme was purchased at OriGene (cat # TP322411). The enzyme was stored in 25 mM Tris.HCl, pH 7.3, 100 mM glycine, 10% glycerol at −20° C. Thiamet G and GlcNAcStatin were tested as reference compounds (Yuzwa et al. 2008 Nature Chemical Biology 4:483; Yuzwa et al. 2012 Nature Chemical Biology 8:393). The assay was performed in 200 mM Citrate/phosphate buffer supplemented with 0.005% Tween-20. 35.6 g Na2HPO4 2 H2O (Sigma, # C0759) were dissolved in 1 L water to obtain a 200 mM solution. 19.2 g citric acid (Merck, #1.06580) was dissolved in 1 L water to obtain a 100 mM solution. pH of the sodiumphosphate solution was adjusted with the citric acid solution to 7.2. The buffer to stop the reaction consists of a 500 mM Carbonate buffer, pH 11.0. 734 mg FM-GlcNAc were dissolved in 5.48 mL DMSO to obtain a 250 mM solution and was stored at −20° C. OGA was used at a 10 nM (protocol A) or 2 nM (protocol B) concentration and FM-GlcNAc at a 100 uM final concentration. Dilutions were prepared in assay buffer.
50 nl of a compound dissolved in DMSO was dispensed on Black Proxiplate™ 384 Plus Assay plates (Perkin Elmer, #6008269) and 3 μl fl-OGA enzyme mix added subsequently. Plates were pre-incubated for 60 min at room temperature and then 2 μl FM-GlcNAc substrate mix added. […] Plates were briefly centrifuged for 1 min at 1000 rpm and incubate at room temperature for 1 h (10 nM OGA, protocol A) or 6 h (2 nM OGA, protocol B). To stop the reaction 5 μl STOP buffer were added and plates centrifuge again 1 min at 1000 rpm. Fluorescence was quantified in the Thermo Scientific Fluoroskan Ascent or the PerkinElmer EnVision with excitation wavelength 485 nm and emission wavelength 538 nm.
For analysis a best-fit curve is fitted by a minimum sum of squares method. From this an IC50 value and Hill coefficient was obtained. High control (no inhibitor) and low control (saturating concentrations of standard inhibitor) were used to define the minimum and maximum values.

| Emax [%] | Compound |
| --- | --- |
| 98 | CC(=O)Nc1ncc(CN2CCCC(c3nc4ncccc4n3C)C2)s1 (stereo not drawn) [Compound 20] |
| 101 | CC(=O)Nc1ncc(CN2CCCC(c3nc4cccnc4n3C)C2)s1 (stereo not drawn) [Compound 21] |

Same assay, conditions: Enzymatic protocol A (10 nM OGA, 1 h); read-out: Enzymatic hOGA; pIC50 (converted)

| IC50 [µM] | Compound |
| --- | --- |
| 0.155 | CC(=O)Nc1ncc(CN2CCCC(c3nc4ncccc4n3C)C2)s1 (stereo not drawn) [Compound 20] |
| 0.302 | CC(=O)Nc1ncc(CN2CCCC(c3nc4cccnc4n3C)C2)s1 (stereo not drawn) [Compound 21] |

Same assay, conditions: Enzymatic protocol B (2 nM OGA, 6 h)

| Enzymatic Emax (%) | Compound |
| --- | --- |
| 100.4 | CC(c1ccc2c(c1)OCO2)N1CCCC(c2cc3ncccc3[nH]2)C1 (single isomer, unassigned) [Compound 31] |

Same assay, conditions: Enzymatic protocol B (2 nM OGA, 6 h); read-out: Enzymatic Emax (%)

| Emax [%] | Compound |
| --- | --- |
| 98.6 | CC(c1ccc2c(c1)OCCO2)N1CCCC(c2cc3ncccc3[nH]2)C1 (racemic) [Compound 33] |
| 100 | CC(=O)Nc1ncc(CN2CCCC(c3cc4ccncc4[nH]3)C2)s1 (stereo not drawn) [Compound 11] |
| 124 | CC(=O)Nc1ncc(CN2CCCC(c3cc4cnccc4[nH]3)C2)s1 (stereo not drawn) [Compound 12] |

Same assay, conditions: Enzymatic protocol B (2 nM OGA, 6 h); read-out: Enzymatic hOGA; pIC50 (converted)

| IC50 [µM] | Compound |
| --- | --- |
| 0.055 | CC(c1ccc2c(c1)OCCO2)N1CCCC(c2cc3ncccc3[nH]2)C1 (racemic) [Compound 33] |
| 0.0269 | CC(c1ccc2c(c1)OCO2)N1CCCC(c2cc3ncccc3[nH]2)C1 (single isomer, unassigned) [Compound 31] |
| 0.0741 | CC(=O)Nc1ncc(CN2CCCC(c3cc4ccncc4[nH]3)C2)s1 (stereo not drawn) [Compound 11] |
| 0.0427 | CC(=O)Nc1ncc(CN2CCCC(c3cc4cnccc4[nH]3)C2)s1 (stereo not drawn) [Compound 12] |

Biological target: T2, OGA (Homo sapiens, UniProt O60502)
T2 construct: endogenous in cells; host or cells: HEK293 cells inducible for P301L mutant human Tau (2N4R)
T2 sequence (O60502 1-916): T1 sequence (O60502 1-916)
Assay: OGA cellular assay: ICC detection of O-GlcNAcylated proteins in HEK293 cells inducible for P301L mutant human Tau
Type: cell-based
Conditions: 6 hours incubation
Procedure: HEK293 cells inducible for P301L mutant human Tau (isoform 2N4R) were established at Janssen. Thiamet-G was used for both plate validation (high control) and as reference compound (reference EC50 assay validation). OGA inhibition is evaluated through the immunocytochemical (ICC) detection of O-GlcNAcylated proteins by the use of a monoclonal antibody (CTD110.6; Cell Signaling, #9875) detecting O-GlcNAcylated residues as previously described (Dorfmueller et al. 2010 Chemistry & biology, 17:1250).
Inhibition of OGA will result in an increase of 0-GlcNAcylated protein levels resulting in an increased signal in the experiment. Cell nuclei are stained with Hoechst to give a cell culture quality control and a rough estimate of immediate compounds toxicity, if any. ICC pictures are imaged with a Perkin Elmer Opera Phenix plate microscope and quantified with the provided software Perkin Elmer Harmony 4.1.
Cells were propagated in DMEM high Glucose (Sigma, #D5796) following standard procedures. 2 days before the cell assay cells are split, counted and seeded in Poly-D-Lysine (PDL) coated 96-wells (Greiner, #655946) plate at a cell density of 12,000 cells per cm^2 (4,000 cells per well) in 100 μl of Assay Medium (Low Glucose medium is used to reduce basal levels of GlcNAcylation) (Park et al. 2014 The Journal of biological chemistry 289:13519). At the day of compound test medium from assay plates was removed and replenished with 90 μl of fresh Assay Medium. 10 μl of compounds at a 10fold final concentration were added to the wells. Plates were centrifuged shortly before incubation in the cell incubator for 6 hours. DMSO concentration was set to 0.2%. Medium is discarded by applying vacuum. For staining of cells medium was removed and cells washed once with 100 μl D-PBS (Sigma, #D8537). From next step onwards unless other stated assay volume was always 50 μl and incubation was performed without agitation and at room temperature. Cells were fixed in 50 μl of a 4% paraformaldehyde (PFA, Alpha aesar, #043368) PBS solution for 15 minutes at room temperature. […] Before analysis samples were washed 2 times manually for 5 minutes in ICC base buffer.
Imaging is performed using Perkin Elmer Phenix Opera using a water 20× objective and recording 9 fields per well. Intensity readout at 488 nm is used as a measure of O-GlcNAcylation level of total proteins in wells. To assess potential toxicity of compounds nuclei were counted using the Hoechst staining. IC50-values are calculated using parametric non-linear regression model fitting. As a maximum inhibition Thiamet G at a 200 uM concentration is present on each plate. In addition, a concentration response of Thiamet G is calculated on each plate.

| Emax [%] | Compound |
| --- | --- |
| 107 | CC(c1ccc2c(c1)OCCO2)N1CCCC(c2cc3ncccc3[nH]2)C1 (racemic) [Compound 33] |
| 95.8 | CC(c1ccc2c(c1)OCO2)N1CCCC(c2cc3ncccc3[nH]2)C1 (single isomer, unassigned) [Compound 31] |
| 103 | CC(=O)Nc1ncc(CN2CCCC(c3cc4ccncc4[nH]3)C2)s1 (stereo not drawn) [Compound 11] |
| 120 | CC(=O)Nc1ncc(CN2CCCC(c3cc4cnccc4[nH]3)C2)s1 (stereo not drawn) [Compound 12] |
| 95.6 | CC(=O)Nc1ncc(CN2CCCC(c3nc4ncccc4n3C)C2)s1 (stereo not drawn) [Compound 20] |
| 101 | CC(=O)Nc1ncc(CN2CCCC(c3nc4cccnc4n3C)C2)s1 (stereo not drawn) [Compound 21] |

Same assay, conditions: 6 hours incubation, read-out: Cellular hOGA, pEC50 (converted)

| EC50 [µM] | Compound |
| --- | --- |
| 0.417 | CC(c1ccc2c(c1)OCCO2)N1CCCC(c2cc3ncccc3[nH]2)C1 (racemic) [Compound 33] |
| 0.195 | CC(c1ccc2c(c1)OCO2)N1CCCC(c2cc3ncccc3[nH]2)C1 (single isomer, unassigned) [Compound 31] |
| 0.0182 | CC(=O)Nc1ncc(CN2CCCC(c3cc4ccncc4[nH]3)C2)s1 (stereo not drawn) [Compound 11] |
| 0.0178 | CC(=O)Nc1ncc(CN2CCCC(c3cc4cnccc4[nH]3)C2)s1 (stereo not drawn) [Compound 12] |
| 2.63 | CC(=O)Nc1ncc(CN2CCCC(c3nc4ncccc4n3C)C2)s1 (stereo not drawn) [Compound 20] |
| 2.63 | CC(=O)Nc1ncc(CN2CCCC(c3nc4cccnc4n3C)C2)s1 (stereo not drawn) [Compound 21] |
